Reference: patent US8772243B2, “Methods for predicting the response to anti-cancer treatment with an agonist of TLR7 or an agonist of TLR8” (Inserm (Institut National de la Sante et de la Recherche …, priority 2008, dated 2014)

Tests used:
A549 cells [1] = assay: Tumor cell proliferation assay (Alamar blue reduction); type: cell-based, human; conditions: 10 μg/ml, ten days
Procedure: (§1) FIG. 4 TLR7 and 8 induce survival of lung tumor cells. (A) A549 cells were unstimulated, stimulated with loxoribine (10 μg/ml), Poly U (10 μg/ml), or Gardiquimod(10μg/ml) and incubated with Alamar blue for 10 days. Reduction of Alamar blue was then determined by spectrophotometry at 570 and 600 nm. The percentage of reduced Alamar blue was calculated as described by the manufacturer. A549 cells were unstimulated or stimulated with loxoribine, Poly U, Gardiquimod, etoposide, or cycloheximide for 24 h. (B) The percentage of dead cells was determined by Trypan blue exclusion. (C) The DNA content was measured by IP staining after RNAse A treatment. The percentages indicate the proportion of subdiploid (G0/G1) and […]. Data represent mean values±SD from 3 independent experiments (*p<0.05; ** p<0.01, Student test). (D) A549 cells were cultured for 6 h in the presence of loxoribine, Poly U, or Gardiquimod, and the expression of Bcl-2 was assayed using Taq Man Low Density Array technology. The ΔCT values for Bcl-2 expression were calculated by subtraction of the CT value obtained for the 18S housekeeping gene. The ΔΔCT values were obtained by subtraction of ΔCT values for unstimulated cells from those obtained for stimulated cells. The fold increase (arbitrary unit) was obtained by 2^−ΔΔCT.
Human lung cancer cell lines were seeded in 96-well plates (800 cells per well) and left unstimulated or were stimulated with loxoribine, Poly U, or Gardiquimod. The proliferation assay was performed with Alamar blue (AbD Serotec, Cergy Pontoise, France) according to the manufacturer's instructions. Briefly, cells were seeded and stimulated with TLR ligands in 100 μl of medium, and 10 μl of Alamar Blue was added. The optical density in each well was determined at 540 nm and 570 nm after 10 days of culture, and the percentage of reduced Alamar blue was determined. The percentage of reduced Alamar blue in unstimulated cells was determined as 100%, and the percentages of the stimulated cells were determined relative to this value.

A549 cells [2] = assay: Cell cycle analysis (propidium iodide staining); type: cell-based, human; conditions: PI staining
Procedure: as §1
A549 cells were cultured in the presence of loxoribine, Poly U, Gardiquimod, etoposide, or cycloheximide. After 48 h, the cells were harvested, washed in cold PBS, and fixed with 2 ml of 70% cold ethanol in PBS for 2 h at 4° C. After centrifugation, the supernatant was removed and the pellet was rinsed with 0.5% PBS Tween. It was then incubated with […] of RNAse A and 50 μg of propidium iodide in PBS. Propidium iodide staining was determined with a FACScalibur cytometer.

[3] = system: Bcl-2 expression in A549 cells; assay: Bcl-2 expression, Taq Man Low Density Array, A549; type: cell-based, human; conditions: 6 h, RT-PCR
Procedure: as §1, with “The fold increase (arbitrary unit) was obtained by 2^−ΔΔCT.” left out
Total RNA was extracted from A549 or SK-MES cells stimulated with loxoribine, Poly U, or Gardiquimod for 6 h or from purified human lung cancer cells using the RNeasy isolation-kit RNA (Qiagen, Courtaboeuf, France). The integrity and the quantity of the RNA were evaluated with a bioanalyzer-2100 (Agilent Technologies). All samples were assessed for gene expression analysis using the Taq Man Low-Density Array angiogenesis and immune panel (Applied Biosystem). […] Quantitative real-time TaqMan-PCR was performed using Low-Density-Arrays and the 7900 robotic real-time PCR-system (Applied-Biosystems). […] Data were analyzed using the SDS Software v2.2 (Applied-Biosystems). The ΔCT values were calculated for each gene by subtraction of the CT value of the 18S housekeeping gene from the CT of the gene of interest. […]

[4] = system: Bcl-2 expression in SCC SK-MES cells; assay: Bcl-2 expression, SK-MES; type: cell-based, human; conditions: data not shown
Procedure: (§2) Total RNA was extracted from A549 or SK-MES cells stimulated with loxoribine, Poly U, or Gardiquimod for 6 h or from purified human lung cancer cells using the RNeasy isolation-kit RNA (Qiagen, Courtaboeuf, France). The integrity and the quantity of the RNA were evaluated with a bioanalyzer-2100 (Agilent Technologies). All samples were assessed for gene expression analysis using the Taq Man Low-Density Array angiogenesis and immune panel (Applied Biosystem). The RT-PCR experiments were carried-out according to the manufacturer's instructions (Applied-Biosystems). Quantitative real-time TaqMan-PCR was performed using Low-Density-Arrays and the 7900 robotic real-time PCR-system (Applied-Biosystems). The 18S primers and probes were used as internal controls. Data were analyzed using the SDS Software v2.2 (Applied-Biosystems). The ΔCT values were calculated for each gene by subtraction of the CT value of the 18S housekeeping gene from the CT of the gene of interest. The ΔΔCT values were obtained by subtraction of the ΔCT values for unstimulated cells from the […]. The fold increase (arbitrary unit) was obtained by 2^−ΔΔCT.

A549 and SK-MES cells [5] = assay: Transcriptomic analysis of 182 genes (Taq Man Low Density Array); type: cell-based, human; conditions: 6 h stimulation; versus unstimulated cells
Procedure: FIG. 6 TLR7 and 8 induce regulation of gene transcription. A549 or SK-MES cells were cultured for 6 h in the presence of loxoribine, Poly U, or Gardiquimod. Total RNA was extracted and analyzed for the expression of 182 genes using Taq Man Low Density Array technology. All genes with a value greater than 35 (CT) were excluded from the analysis. The ΔCT values for the expression of all genes were calculated by subtraction of the CT value of the 18S housekeeping gene. The ΔΔCT values were obtained by subtraction of the ΔCT values for unstimulated cells from those obtained for TLR7- or 8-stimulated cells. The fold increase (arbitrary unit) was obtained by 2^−ΔΔCT. Values were then clustered using the Genesis Software.
as §2

[6] = system: 1549, H1355 and SK-MES cells; assay: Chemoresistance by colony formation assay; type: cell-based, human; conditions: concentration added on day 12 of colony formation assay
Procedure: Alternatively, chemoresistance was assessed by the colony formation assay. In this assay, 1549, H1355 and SK-MES cells were seeded in 6-well plates (500 cells per well) and incubated for 15 days at 37° under 5% CO2. The cells were left unstimulated or stimulated 100 μM Loxoribine or with 10 μg/ml single-stranded polyU RNA (InvivoGen) on days 0, 3, 6 and 9. On day 12, different anti-cancer agents were added at the respective LD50 (cisplatin and carboplatin 100 μM, navelbine 50 μM, doxorubicine 2 nM). On day 15, the wells ware washed with PBS, and stained with 6% (vol/vol) glutaraldehyde, 0.5% (wt/vol) crystal violet in water for 30 minutes. The cells were washed and the colonies of more than 50 cells counted. Cell survival was calculated as follows: number of colonies after chemotherapy/number of cells seeded on day 0×plating efficiency, where the plating efficiency is number of colonies/number of cells seeded.

A549 and SK-MES cells [7] = assay: Chemoresistance assay (Trypan blue and Alamar blue); type: cell-based, human; conditions: Alamar blue reduction
Procedure: FIG. 5 TLR7 and 8 induce chemoresistance of lung tumor cells. A549 (A-C) or SK-MES cells (D-F) were cultured with or without loxoribine or Poly U for 48 h, and then left untreated or were treated with cycloheximide, cisplatine, carboplatine, doxorubicine, or Navelbine. After 36 h, the percentage of dead cells was determined by Trypan blue exclusion (A, D) and cell viability was analyzed by the reduction of Alamar blue (B, C, E and F). Data represent mean values±SD from 3 independent experiments (*p<0.05; **p<0.01, ***p<0.001, Student test).
A549 and SK-MES cells were seeded in 96-well plates (1000 cells per well) and left unstimulated or were stimulated with loxoribine, Poly U, or Gardiquimod for 48 h. Cisplatine, carboplatine, doxorubicine, Navelbine, or cycloheximide was then added for an additional 36 h. The optical density in each well was determined 24 h after the addition of Alamar blue at 540 nm and 570 nm. Alternatively, viable and dead cells were counted using Trypan blue.

A549 cells [8] = assay: A549 xenograft in NOD/SCID mice; type: in vivo; conditions: for factor of reduction of tumor size by chemotherapy: cisplatine 2 mg/kg/injection i.p.
Procedure: Mice were anesthetized by intra-peritoneal injection of a solution containing 3.2 mg of ketamine (Virbac) and 0.16 mg of xylasine (Rompum 2%, Bayer Healthcare) in 80 μl of PBS (Gibco). Five days prior to experimentation, A549 cells were pre-stimulated with 100 μM Loxoribine (Invivogen) or left unstimulated. For each condition 5×10^6 cells were diluted in 250 μl PBS and injected subcutaneously to 5 mice per group and were re-stimulated either with 50 μl PBS or with 100 nmol of Loxoribine diluted in 50 μl PBS. Stimulating injections into the tumor site were carried out on the day the cells were injected and then on days 3, 6 and 9. The mice then received either 120 μA PBS, or a chemotherapy of cisplatine (2 mg/kg/injection diluted in 120 μl PBS) on days 18, 20 and 22, both intra-peritoneal. The volume of the tumor was determined by measuring the length (Lg), the width (Wi) of the tumor and by calculating (Lg*(Wi*Wi)/2.

A549 cells [9] = assay: Percentage of dead cells by Trypan blue exclusion; type: cell-based, human; conditions: 24 h
Procedure: as §1

[10] = system: IκBα (NF-κB activation) in A549 cells; assay: Western blot of IκBα phosphorylation and degradation (NF-κB activation) in A549 cells; type: cell-based, human; conditions: TNF-α 10 ng/ml
Procedure: FIG. 3 TLR7 and TLR8 lead to IκBα phosphorylation, but not degradation. A549 cells were untreated or treated with TNF-α (10 ng/ml) (A, B), loxoribine (10 μg/ml) (C, D), or Poly U (10 μg/ml) (E, F) for the indicated periods of time. The cell lysates were analyzed by immunoblot with anti-phospho-specific IκBα, anti-IκBα and anti-actin antibodies (A, C, E). Quantification of the bands was realized using Image J software (B, D, F). Histograms represent the intensity of each band observed in the blots at the indicated time point and are expressed in arbitrary units normalized to actin intensity (relative intensity) both for phospho-IκBα and IκBα. Results are representative of three independent experiments.
A549 cells (1.10^6 cells) were starved for 4 hours in medium containing 2% FCS, and then stimulated with loxoribine, PolyU, or TNFα (10 ng/ml) for different periods of time as indicated. Cells were lysed in 50 mM Tris-HCl, pH 7.5, 150 mM NaCl, 2 mM EDTA, 0.5% triton X100, 2 mM Na3VO4, 10 mM NaF, and 10 mM sodium pyrophosphate supplemented with a complete protease inhibitor cocktail (Boehringer, Paris, France). Protein contents in the cell lysates were quantified using the quick start Bradford protein assay kit (Biorad, Marnes-La-Coquette, France) to ensure that all samples contained similar amounts of protein. Proteins (30 μg) were resolved in 10% Tris-glycine polyacrylamide gels (Invitrogen, Cergy Pontoise, France) and transferred to PVDF immobilon-P membranes (Millipore, Molsheim, France). Blots were probed with monoclonal antibody against phospho-IκBα (Cell Signaling Technology, Danvers, USA), total IκBα, and actin (Santa Cruz, Le Perray en Yvelines, France).
In order to determine if the TLR7 and 8 expressed by lung tumor cell lines were able to induce intracellular signaling pathways, we studied NF-κB activation in response to stimulation with TNFα, loxoribine (homodimeric TLR7 ligand), or Poly U (homodimeric TLR8 ligand). […] In contrast TLR7 or 8 stimulation led to atypical NF-κB activation. […] Furthermore, we also observed that the kinetics of IκBα phosphorylation were dependent on the stimulus. On the one hand, TNFα stimulation induced two waves of IκBα phosphorylation; the first one after ten minutes was associated with IκBα degradation, and the second one after sixty minutes was not associated with IκBα degradation. On the other hand, we observed that TLR stimulation induced only a phosphorylation of IκBα, with a maximum phosphorylation obtained after thirty minutes without degradation of IκBα.

Compound: CCNCc1nc2c(N)nc3ccccc3c2n1CC(C)(C)O [Gardiquimod]
- increase in reduction of Alamar blue versus unstimulated cells (A549 cells [1]): 20%
- proportion of cells in G0/G1 or G2/M phases versus unstimulated cells (A549 cells [2]): did not observe any significant differences
- Bcl-2 expression compared to untreated cells [3]: increased expression of Bcl-2
- increase in Bcl-2 expression [4]: 100 fold
- genes down-regulated in both SK-MES and A549 cells (A549 and SK-MES cells [5]): Prolactin (PRL), CD80, Fibronectin-1 (FN-1), A Disintegrin And Metalloproteinase with ThromboSpondin motif 1 (ADAMTS1), and Serpin Peptidase Inhibitor Clade C1 (SERPINC1)
- genes up-regulated in A549 cells, but down-regulated in SK-MES cells (A549 and SK-MES cells [5]): Angiopoietin like 3 (ANGPTL3), Serpin Peptidase Inhibitor Clade F1 (SERPINF1), and Angiopoietin 1 (ANGPT1)
- genes up-regulated in SK-MES, but down-regulated in A549 cells (A549 and SK-MES cells [5]): ANGPTL1, Platelet Factor 4 (PF4), and fms related tyrosine kinase 4 (FLT4)
- genes up-regulated in both SK-MES and A549 cells (A549 and SK-MES cells [5]): Bcl-2, CCR4, and Vasohibin-1 (VASH-1)

Compound: CCC1=C[C@@H]2CN(C1)Cc1c([nH]c3ccccc13)[C@@](C(=O)OC)(c1cc3c(cc1OC)N(C)[C@H]1[C@@](O)(C(=O)OC)[C@H](OC(C)=O)[C@]4(CC)C=CCN5CC[C@]31[C@@H]54)C2 [Navelbine]
- LD50 [6]: 50 µM

Compound: [NH2][Pt]1([NH2])[O]C(=O)C2(CCC2)C(=O)[O]1 [carboplatine]
- reduction in cell viability by chemotherapy, comparison of drugs (A549 and SK-MES cells [7]): more potent inducers of cell death
- LD50 [6]: 100 µM

Compound: [NH2][Pt]([NH2])([Cl])[Cl] [cisplatine]
- reduction in cell viability by chemotherapy, comparison of drugs (A549 and SK-MES cells [7]): more potent inducers of cell death
- LD50 [6]: 100 µM
- factor of reduction of tumor size by chemotherapy (A549 cells [8]; Loxoribine-stimulated group): 1.6 factor
- factor of reduction of tumor size by chemotherapy (A549 cells [8]; NS group): 3 factor
- tumor volume seven weeks after injection of tumor cells (A549 cells [8]; NS group, cisplatine 2 mg/kg/injection i.p. days 18, 20, 22): 0.6 cm^3

Compound: C[C@@H]1C[C@@H]([C@H](O)CC2CC(=O)NC(=O)C2)C(=O)[C@@H](C)C1 [cycloheximide]
- increase in the percentage of dead cells (positive controls) (A549 cells [9]): 2.5 fold
- proportion of cells in G0/G1 or G2/M phases versus unstimulated cells (A549 cells [2]): significant reduction in the percentage of cells in G0/G1 or G2/M

Compound: COc1cccc2c1C(=O)c1c(O)c3c(c(O)c1C2=O)C[C@@](O)(C(=O)CO)C[C@@H]3O[C@H]1C[C@H](N)[C@H](O)[C@H](C)O1 [doxorubicine]
- LD50 [6]: 0.002 µM

Compound: COc1cc([C@@H]2c3cc4c(cc3[C@@H](O[C@@H]3O[C@@H]5CO[C@@H](C)O[C@H]5[C@H](O)[C@H]3O)[C@H]3COC(=O)[C@H]23)OCO4)cc(OC)c1O [etoposide]
- increase in the percentage of dead cells (positive controls) (A549 cells [9]): 2.5 fold
- proportion of cells in G0/G1 or G2/M phases versus unstimulated cells (A549 cells [2]): significant reduction in the percentage of cells in G0/G1 or G2/M

Compound: TNFα
- first wave of IκBα phosphorylation, associated with IκBα degradation [10]: ten
- second wave of IκBα phosphorylation, not associated with IκBα degradation [10]: sixty
- IκBα degradation / type of NF-κB activation ([10]; loxoribine or Poly U 10 μg/ml): IκBα phosphorylation and degradation
